From patent publication US4338451A, “5-Hydroxymethyl oxazolidinones” (Delalande S.A., priority 1977, dated 1982) come the findings set out here.

Data set [1] concerns generalized trembling caused by an interperitoneal injection (200 mg/kg) of dl-5-hydroxytryptophane. The data set is described as follows: Test A: potentiation in mice of generalized trembling caused by dl-5-hydroxytryptophane. The format is in vivo. To be noted: Mus musculus, po, dl-5-hydroxytryptophane 200 mg/kg intraperitoneal, read-out: Test A ED 50. How it is done:
Potentiation in mice of generalized trembling caused by an interperitoneal injection (200 mg/kg) of dl-5-hydroxytryptophane, following the protocol described by C. GOURET and G. RAYNAUD in J. Pharmacol. (Paris), (1974) 5, 231.

Data set [2] concerns pontogeniculo-occipital points (P.G.O.) caused by an intravenous injection (0.5 mg/kg) of reserpine. The data set is described as follows: Test C: reduction in the density of pontogeniculo-occipital points (P.G.O.) caused by reserpine in cats. The format is in vivo. To be noted: Felis catus, ip, reserpine 0.5 mg/kg intravenous, read-out: Test C ED 50. How it is done: Reduction in the density of pontogeniculo-occipital points (P.G.O.) caused by an intravenous injection (0.5 mg/kg) of reserpine given to cats, following the protocol described by A. COSTON and C. GOURET in J. Pharmacol. (Paris) (1976), 7, 409.

Data set [3] deals with ptosis observed one hour after an intravenous injection (2 mg/kg) of reserpine. The data set is described as follows: Test B: antagonism of the ptosis caused by reserpine in mice. To be noted: Mus musculus, po, 1 h, p.o., reserpine 2 mg/kg intravenous, read-out: Test B ED 50. The format is in vivo. The method, then:
Antagonism with respect to the ptosis observed one hour after an intravenous injection (2 mg/kg) of reserpine given to mice, following the protocol described by C.

The next data set can be described thus: Acute toxicity in mice. To be noted: mouse, in vivo, po.

SMILES strings stand for the structures.

Broadly, the mortality is the percentage killed. A low value points to a weak lethal effect. As a reminder, the LD50 is the dose expected to kill half of the subjects tested. Lower therefore signals greater toxicity.

In the case of `O=C1OC(CO)CN1c1ccc(OCc2cccc(Br)c2)cc1` (centres unmarked) [760 557], the ED50 stood at 7.3 mg/kg in data set [1], 110 mg/kg in data set [2] and 3.3 mg/kg in data set [3]. The mortality in the data set “Acute toxicity in mice” (1000 mg/kg) turned out to be 0%.
Consider `CC(=O)COc1ccc(N2CC(CO)OC2=O)cc1` (centres unmarked) [760 652, 3-(p-acetylmethyloxy) 5-hydroxymethyl 2-oxazolidinone], for which the mortality in the data set “Acute toxicity in mice” (mice, dose administered 1000 mg/kg/p.o.) turned out to be 0%.
As for `N#CCCOc1ccc(N2CC(CO)OC2=O)cc1` (centres unmarked) [770 131, 3-(2-p-cyanoethoxyphenyl) 5-hydroxymethyl 2-oxazolidinone], the ED50 in data set [1] was found to be 2.5 mg/kg; in data set [2], 5.5 mg/kg; in data set [3], 3 mg/kg. In addition, the mortality in “Acute toxicity in mice” (1000 mg/kg) stood at 0%.
The matching figures for `N#Cc1cccc(COc2ccc(N3CC(CO)OC3=O)cc2)c1` (centres unmarked) [770 222]: 2.8 mg/kg, 5.2 mg/kg, 1.2 mg/kg and 0%.
The like results for `O=C1OC(CO)CN1c1ccc(OCc2cccc([N+](=O)[O-])c2)cc1` (centres unmarked) [770 234] were, in that order, 1.5 mg/kg, 9 mg/kg, 0.7 mg/kg and 0%.
On to `O=C1OC(CO)CN1c1ccc(OCc2cccs2)cc1` (centres unmarked) [770 673], for which the results for the ED50 in data set [1], in data set [2] and in data set [3] were 16 mg/kg, 8 mg/kg and 35 mg/kg, respectively.
As for `O=C1OC(CO)CN1c1ccc(OCc2ccc(F)c([N+](=O)[O-])c2)cc1` (centres unmarked) [770 955], the ED50 is 13 mg/kg in data set [1] and 7 mg/kg in data set [3]. In the data set “Acute toxicity in mice” (2000 mg/kg), this compound registered a mortality of 17%.
`CC(C)CCOc1ccc(N2CC(CO)OC2=O)cc1` (centres unmarked) [771 082]: the results for the ED50 in data set [1] and in data set [3] were 1.3 mg/kg and 0.7 mg/kg, respectively. Besides, the 50% lethal dose (LD50) in “Acute toxicity in mice” is over 2000 mg/kg.
The matching figures for `O=C1OC(CO)CN1c1ccc(OCCC2CCCC2)cc1` (centres unmarked) [771 245]: 1.5 mg/kg, 2 mg/kg and over 2000 mg/kg.
The like results for `O=C1OC(CO)CN1c1ccc(OCC2CCOCC2)cc1` (centres unmarked) [771 301] were, in that order, 1.9 mg/kg, 3 mg/kg and over 2000 mg/kg.
`Cc1cccc(N2CC(CO)OC2=O)c1` (centres unmarked) [TOLOXATONE, reference compound]: the ED50 was determined as 60 mg/kg in data set [1], 28 mg/kg in data set [2] and 50 mg/kg in data set [3].
